Results as given in EPA's ToxRefDB 2.

Tests used:
[1] = system: dog; conditions: Chronic toxicity; beagle; Oral; Feed; dose end: 52 week; group: systemic; systemic / clinical chemistry / albumin / albumin + systemic / clinical chemistry / cholesterol / cholesterol + systemic / clinical …
[2] = system: rat; conditions: Combined chronic toxicity/carcinogenicity, sprague dawley, Oral, Feed, dose end: 104 week, group: systemic
[3] = system: rat; conditions: Multigenerational reproductive toxicity study, sprague dawley, Oral, Feed, dose end: 2 generation
[4] = system: mouse; conditions: Carcinogenicity; cd1; Oral; Feed; dose end: 97 week; group: systemic; systemic / in life observation / body weight / body weight + systemic / in life observation / body weight / body weight gain + systemic / …
[5] = system: dog; conditions: Subchronic oral toxicity in nonrodent, beagle, Feed, dose end: 90 day, group: systemic, systemic / clinical chemistry / albumin / albumin + systemic / clinical chemistry / calcium / calcium + systemic / clinical chemistry / …
[6] = system: rat; conditions: Prenatal developmental toxicity study, sprague dawley, Oral, Gavage/Intubation, dose end: 15 GD
[7] = system: mouse; conditions: Sub-acute repeat dose toxicity, b6c3f1, Oral, Gavage/Intubation, dose end: 14 day, group: systemic
[8] = system: rat; conditions: Sub-acute repeat dose toxicity, fischer, Oral, Gavage/Intubation, dose end: 14 day, group: systemic
[9] = system: rat; conditions: Carcinogenicity, fischer, Oral, Gavage/Intubation, dose end: 103 week, group: systemic
[10] = system: rat; conditions: Subchronic oral toxicity in rodents, fischer, Gavage/Intubation, dose end: 13 week, group: systemic
[11] = system: mouse; conditions: Subchronic oral toxicity in rodents, b6c3f1, Gavage/Intubation, dose end: 13 week, group: systemic
[12] = system: mouse; conditions: Carcinogenicity, b6c3f1, Oral, Gavage/Intubation, dose end: 103 week, group: systemic
[13] = systemic / hematology / erythrocyte (rbc) count differential / erythrocyte (rbc) + systemic / hematology / hematocrit (hct) / hematocrit (…
[14] = group: offspring, systemic / in life observation / body weight / offspring (pup) weight + systemic / in life observation / body weight / offspring (pup) …
[15] = group: parental, systemic / in life observation / body weight / body weight gain
[16] = group: parental, systemic / in life observation / body weight / body weight gain + systemic / in life observation / body weight / body weight + systemic / in…
[17] = group: developmental, developmental / developmental malformation / bone / incomplete ossification
[18] = group: developmental, developmental / developmental malformation / bone / incomplete ossification + developmental / developmental malformation / bone / short …
[19] = group: maternal, systemic / in life observation / body weight / body weight gain + systemic / in life observation / clinical signs / [other] + systemic / in …
[20] = systemic / in life observation / body weight / body weight
[21] = systemic / in life observation / body weight / body weight + systemic / in life observation / clinical signs / abnormal posture + systemic…
[22] = systemic / pathology microscopic / liver / vacuolization cytoplasmic + systemic / pathology microscopic / liver / degeneration
[23] = systemic / pathology microscopic / liver / vacuolization cytoplasmic + systemic / pathology microscopic / liver / degeneration + systemic / …
[24] = systemic / pathology microscopic / liver / necrosis + systemic / pathology microscopic / liver / vacuolization cytoplasmic + systemic / in …
[25] = systemic / pathology microscopic / liver / vacuolization cytoplasmic
[26] = systemic / pathology microscopic / liver / vacuolization cytoplasmic + systemic / in life observation / body weight / body weight + systemic…
[27] = systemic / pathology microscopic / liver / vacuolization cytoplasmic + systemic / in life observation / clinical signs / defecation (…

**Q.** `CN(C)C(=S)SSC(=S)N(C)C` [Thiram] was tested. Which LEL [1] did it give?
**A.** Its LEL is 0.84 mg/kg/day.

**Q.** And the LOAEL [1]?
**A.** Its LOAEL is 0.84 mg/kg/day.

**Q.** And the NEL [1]?
**A.** The NEL was less than 0.84 mg/kg/day.

**Q.** What about the NOAEL [1] of the same molecule?
**A.** The NOAEL was less than 0.84 mg/kg/day.

**Q.** What about the LEL [2, 13] of the same molecule?
**A.** The LEL was 1.8 mg/kg/day.

**Q.** What about the NEL [2, 13] of the same molecule?
**A.** Its NEL is less than 1.8 mg/kg/day.

**Q.** And the LOAEL ([2]; systemic / in life observation / body weight / body weight gain)?
**A.** Its LOAEL is 7.3 mg/kg/day.

**Q.** And the NOAEL ([2]; systemic / in life observation / body weight / body weight gain + systemic / clinical chemistry / glucose / glucose + systemic / hematology…)?
**A.** Its NOAEL is 1.5 mg/kg/day.

**Q.** What about the LEL [3, 14] of the same molecule?
**A.** The LEL was 4.9 mg/kg/day.

**Q.** And the LOAEL [3, 14]?
**A.** The LOAEL was 4.9 mg/kg/day.

**Q.** And the NEL [3, 14]?
**A.** The NEL was 1.7 mg/kg/day.

**Q.** And the NOAEL [3, 14]?
**A.** The NOAEL was 1.7 mg/kg/day.

**Q.** And the LEL [3, 15]?
**A.** The LEL was 4.7 mg/kg/day.

**Q.** And the LOAEL [3, 15]?
**A.** Its LOAEL is 4.7 mg/kg/day.

**Q.** What about the NEL [3, 16] of the same molecule?
**A.** Its NEL is 1.6 mg/kg/day.

**Q.** And the NOAEL [3, 16]?
**A.** The NOAEL was 1.6 mg/kg/day.

**Q.** What about the LEL [4] of the same molecule?
**A.** Its LEL is 24 mg/kg/day.

**Q.** What about the LOAEL [4] of the same molecule?
**A.** The LOAEL was 24 mg/kg/day.

**Q.** What about the NEL [4] of the same molecule?
**A.** The NEL was 2.5 mg/kg/day.

**Q.** And the NOAEL [4]?
**A.** Its NOAEL is 2.5 mg/kg/day.

**Q.** And the LEL [5]?
**A.** The LEL was 2.26 mg/kg/day.

**Q.** What about the LOAEL [5] of the same molecule?
**A.** The LOAEL was 7.01 mg/kg/day.

**Q.** What about the NEL [5] of the same molecule?
**A.** The NEL was less than 2.26 mg/kg/day.

**Q.** And the NOAEL [5]?
**A.** Its NOAEL is 2.26 mg/kg/day.

**Q.** What about the LEL [6, 17] of the same molecule?
**A.** Its LEL is 7.5 mg/kg/day.

**Q.** What about the NEL [6, 17] of the same molecule?
**A.** Its NEL is less than 7.5 mg/kg/day.

**Q.** And the LOAEL [6, 18]?
**A.** Its LOAEL is 15 mg/kg/day.

**Q.** And the NOAEL [6, 18]?
**A.** The NOAEL was 7.5 mg/kg/day.

**Q.** What about the LEL [6, 19] of the same molecule?
**A.** Its LEL is 7.5 mg/kg/day.

**Q.** What about the LOAEL [6, 19] of the same molecule?
**A.** Its LOAEL is 7.5 mg/kg/day.

**Q.** What about the NEL [6, 19] of the same molecule?
**A.** The NEL was less than 7.5 mg/kg/day.

**Q.** What about the NOAEL [6, 19] of the same molecule?
**A.** Its NOAEL is less than 7.5 mg/kg/day.

**Q.** Which LEL [7, 20] does the source give for `OC[P+](CO)(CO)CO.[Cl-]` [Tetrakis(hydroxymethyl)phosphonium chloride] here?
**A.** Its LEL is 18.8 mg/kg/day.

**Q.** And the LOAEL [7, 20]?
**A.** Its LOAEL is 150 mg/kg/day.

**Q.** And the NEL [7, 20]?
**A.** Its NEL is less than 18.8 mg/kg/day.

**Q.** What about the NOAEL ([7]; systemic / in life observation / body weight / body weight + systemic / in life observation / mortality / mortality) of the same molecule?
**A.** Its NOAEL is 75 mg/kg/day.

**Q.** What about the LEL [8, 20] of the same molecule?
**A.** Its LEL is 18.8 mg/kg/day.

**Q.** And the LOAEL [8, 20]?
**A.** Its LOAEL is 37.5 mg/kg/day.

**Q.** What about the NEL [8, 21] of the same molecule?
**A.** Its NEL is 9.4 mg/kg/day.

**Q.** What about the NOAEL [8, 21] of the same molecule?
**A.** Its NOAEL is 18.8 mg/kg/day.

**Q.** And the LOAEL [9, 22]?
**A.** Its LOAEL is 3.75 mg/kg/day.

**Q.** What about the NOAEL [9, 22] of the same molecule?
**A.** The NOAEL was less than 3.75 mg/kg/day.

**Q.** And the LEL [9, 23]?
**A.** The LEL was 3.75 mg/kg/day.

**Q.** And the NEL [9, 23]?
**A.** Its NEL is less than 3.75 mg/kg/day.

**Q.** What about the NEL ([10]; systemic / in life observation / body weight / body weight + systemic / pathology microscopic / liver / necrosis + systemic / pathology …) of the same molecule?
**A.** Its NEL is 3.75 mg/kg/day.

**Q.** What about the LOAEL [10, 24] of the same molecule?
**A.** Its LOAEL is 30 mg/kg/day.

**Q.** What about the NOAEL [10, 24] of the same molecule?
**A.** Its NOAEL is 15 mg/kg/day.

**Q.** And the LEL [10, 25]?
**A.** Its LEL is 7.5 mg/kg/day.

**Q.** And the LEL [11, 25]?
**A.** Its LEL is 15 mg/kg/day.

**Q.** What about the NEL [11, 26] of the same molecule?
**A.** The NEL was 4.5 mg/kg/day.

**Q.** What about the NOAEL [11, 26] of the same molecule?
**A.** Its NOAEL is 15 mg/kg/day.

**Q.** And the LOAEL ([11]; systemic / pathology microscopic / liver / vacuolization cytoplasmic + systemic / pathology microscopic / liver / necrosis)?
**A.** The LOAEL was 45 mg/kg/day.

**Q.** What about the LOAEL [12, 25] of the same molecule?
**A.** Its LOAEL is 7.5 mg/kg/day.

**Q.** And the NOAEL [12, 25]?
**A.** The NOAEL was less than 7.5 mg/kg/day.

**Q.** And the LEL [12, 27]?
**A.** Its LEL is 7.5 mg/kg/day.

**Q.** And the NEL [12, 27]?
**A.** Its NEL is less than 7.5 mg/kg/day.
